Reference: patent US10077261B2, “Imidazolin-5-one derivative useful as FASN inhibitors for the treatment of cancer” (Janssen Pharmaceutica NV, priority 2012, dated 2018)

Target: T1, hFASN enzyme (full length) (Homo sapiens, UniProt P49327)
T1 construct: 10 μL hFASN enzyme (full length, 300 ng, purified in house); made in house
Experiment: Fatty Acid Synthase (FASN) inhibition scintillation proximity assay
Assay type: biochemical
Details: for inhibition at 10 µM: read-out: Human FASN % inhibition @ 10 μM, 10 μM test compound; for IC50: read-out: Human FASN pIC50 (converted)
Summary of the method: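 Purified full-length hFASN (300 ng) converts ^3H-acetyl-CoA plus malonyl-CoA to ^3H-palmitate in 100 mM KH2PO4 pH 7.5, 1 mM DTT; compounds tested at 0.01–30 μM. Product captured on streptavidin imaging beads and read by LEADseeker at 610 nm after ≥24 h; 4-parameter logistic fit versus controls.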

T1 sequence (P49327 whole entry): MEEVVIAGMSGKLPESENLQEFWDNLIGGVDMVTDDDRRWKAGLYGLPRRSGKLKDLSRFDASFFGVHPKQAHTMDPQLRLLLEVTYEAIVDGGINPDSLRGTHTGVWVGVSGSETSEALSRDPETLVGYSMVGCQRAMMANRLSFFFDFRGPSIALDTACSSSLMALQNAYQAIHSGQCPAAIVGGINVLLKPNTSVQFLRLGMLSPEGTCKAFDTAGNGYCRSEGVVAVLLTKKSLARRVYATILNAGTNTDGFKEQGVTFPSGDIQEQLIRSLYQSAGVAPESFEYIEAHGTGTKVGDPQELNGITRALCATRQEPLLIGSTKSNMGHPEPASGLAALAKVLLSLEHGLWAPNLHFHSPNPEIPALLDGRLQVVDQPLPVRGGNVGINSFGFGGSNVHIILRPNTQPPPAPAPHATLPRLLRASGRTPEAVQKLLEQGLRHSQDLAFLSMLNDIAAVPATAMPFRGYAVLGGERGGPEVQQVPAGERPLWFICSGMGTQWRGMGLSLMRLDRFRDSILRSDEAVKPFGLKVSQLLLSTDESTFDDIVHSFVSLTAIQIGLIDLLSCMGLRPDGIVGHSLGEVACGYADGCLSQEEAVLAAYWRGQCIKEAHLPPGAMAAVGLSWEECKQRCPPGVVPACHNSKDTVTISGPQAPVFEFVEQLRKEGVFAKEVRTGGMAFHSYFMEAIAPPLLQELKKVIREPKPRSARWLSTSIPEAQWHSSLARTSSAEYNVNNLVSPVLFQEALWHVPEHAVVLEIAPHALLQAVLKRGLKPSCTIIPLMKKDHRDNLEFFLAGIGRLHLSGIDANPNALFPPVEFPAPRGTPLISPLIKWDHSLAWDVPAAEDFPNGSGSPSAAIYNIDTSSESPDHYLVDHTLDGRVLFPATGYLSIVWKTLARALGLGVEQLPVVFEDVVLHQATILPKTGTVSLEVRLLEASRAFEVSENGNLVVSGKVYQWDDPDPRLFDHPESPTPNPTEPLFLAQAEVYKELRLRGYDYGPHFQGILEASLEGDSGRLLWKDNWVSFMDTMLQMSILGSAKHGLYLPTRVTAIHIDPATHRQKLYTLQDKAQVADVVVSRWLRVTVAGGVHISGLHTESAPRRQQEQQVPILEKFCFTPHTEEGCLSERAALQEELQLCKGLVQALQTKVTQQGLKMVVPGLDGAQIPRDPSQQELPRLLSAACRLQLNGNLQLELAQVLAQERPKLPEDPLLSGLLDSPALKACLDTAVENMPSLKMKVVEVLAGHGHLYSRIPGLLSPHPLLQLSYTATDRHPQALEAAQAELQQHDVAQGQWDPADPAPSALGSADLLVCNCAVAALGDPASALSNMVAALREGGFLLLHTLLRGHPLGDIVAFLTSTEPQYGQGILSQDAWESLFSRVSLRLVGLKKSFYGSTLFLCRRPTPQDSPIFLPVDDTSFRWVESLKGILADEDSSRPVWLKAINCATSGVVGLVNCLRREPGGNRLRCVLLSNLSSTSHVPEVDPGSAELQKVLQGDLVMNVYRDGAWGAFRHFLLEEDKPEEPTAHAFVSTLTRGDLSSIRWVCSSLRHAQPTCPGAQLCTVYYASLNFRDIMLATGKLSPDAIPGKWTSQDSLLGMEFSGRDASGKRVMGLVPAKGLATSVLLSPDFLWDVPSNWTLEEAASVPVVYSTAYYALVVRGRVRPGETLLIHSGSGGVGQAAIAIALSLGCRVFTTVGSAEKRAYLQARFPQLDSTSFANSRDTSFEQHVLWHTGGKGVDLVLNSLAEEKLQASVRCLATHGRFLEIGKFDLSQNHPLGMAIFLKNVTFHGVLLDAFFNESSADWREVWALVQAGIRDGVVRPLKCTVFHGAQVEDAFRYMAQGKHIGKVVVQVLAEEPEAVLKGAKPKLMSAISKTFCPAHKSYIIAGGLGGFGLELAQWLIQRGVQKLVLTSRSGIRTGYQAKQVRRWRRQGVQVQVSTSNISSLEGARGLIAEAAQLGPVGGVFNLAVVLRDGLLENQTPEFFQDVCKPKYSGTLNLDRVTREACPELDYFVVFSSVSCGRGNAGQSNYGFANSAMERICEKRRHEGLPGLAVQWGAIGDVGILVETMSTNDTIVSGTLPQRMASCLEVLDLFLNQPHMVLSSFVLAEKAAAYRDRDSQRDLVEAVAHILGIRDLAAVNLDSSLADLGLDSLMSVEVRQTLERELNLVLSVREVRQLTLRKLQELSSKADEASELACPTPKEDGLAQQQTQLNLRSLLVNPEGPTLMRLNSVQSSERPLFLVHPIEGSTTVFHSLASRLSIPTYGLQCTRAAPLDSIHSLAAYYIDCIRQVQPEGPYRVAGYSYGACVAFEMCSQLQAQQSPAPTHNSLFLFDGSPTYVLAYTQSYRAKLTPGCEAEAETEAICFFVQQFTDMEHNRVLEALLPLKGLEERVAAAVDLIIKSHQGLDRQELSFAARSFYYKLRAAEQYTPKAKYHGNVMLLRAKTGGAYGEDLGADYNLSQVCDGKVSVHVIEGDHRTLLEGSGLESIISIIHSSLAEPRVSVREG

SMILES | inhibition at 10 µM [%] | IC50 [µM] | Human FASN pIC50 (hFASN enzyme, full length, "~" means standard error of the pIC50 is larger than 0.5)
COC(=O)c1cccc(-c2ccc(C3=NC4(CC4)C(=O)N3C[C@@H]3CCN(C(=O)C4CC4)C3)cc2)c1 [compound 401, Methyl 4′-(6-{[(3R)-1-(cyclopropylcarbonyl)pyrrolidin-3-yl]methyl}-7-oxo-4,6-diazaspiro[2.4]hept-4-en-5-yl)biphenyl-3-carboxylate] | 70 | 3.72 | –
Cn1nccc1-c1ccc(-c2ccc(C3=NC4(CC4)C(=O)N3C[C@@H]3CCN(C(=O)C4CC4)C3)cc2)cc1 [compound 407, 6-{[(3R)-1-(Cyclopropylcarbonyl)pyrrolidin-3-yl]methyl}-5-[4′-(1-methyl-1H-pyrazol-5-yl)biphenyl-4-yl]-4,6-diazaspiro[2.4]hept-4-en-7-one] | 69 | 2.34 | –
O=C(C1CC1)N1CC[C@H](CN2C(=O)C3(CC3)N=C2c2ccc(-c3ccc(O)cc3)cc2)C1 [compound 408, 6-{[(3S)-1-(Cyclopropylcarbonyl)pyrrolidin-3-yl]methyl}-5-(4′-hydroxybiphenyl-4-yl)-4,6-diazaspiro[2.4]hept-4-en-7-one] | 63 | 5.13 | –
O=C(C1CC1)N1CC(CN2C(=O)C3(CC3)N=C2c2ccc(-c3ccc4occc4c3)c(F)c2)C1 [compound 415] | 80 | 1.26 | –
Cc1cc2cc(-c3ccc(C4=NC5(CC5)C(=O)N4CC4CN(C(=O)C5CC5)C4)cc3F)ccc2o1 [compound 416, 6-{[1-(Cyclopropylcarbonyl)azetidin-3-yl]methyl}-5-[3-fluoro-4-(2-methyl-1-benzofuran-5-yl)phenyl]-4,6-diazaspiro[2.4]hept-4-en-7-one] | 76 | ~1.78 | –
Cc1oc2ccc(-c3ccc(C4=NC5(CC5)C(=O)N4CC4CN(C(=O)C5CC5)C4)cc3F)cc2c1C [compound 417, 6-{[1-(Cyclopropylcarbonyl)azetidin-3-yl]methyl}-5-[4-(2,3-dimethyl-1-benzofuran-5-yl)-3-fluorophenyl]-4,6-diazaspiro[2.4]hept-4-en-7-one] | 62 | 5.25 | –
O=C(C1CC1)N1CC[C@@H](CN2C(=O)C3(CC3)N=C2c2ccc(-c3ccc4occc4c3)s2)C1 [compound 422, 5-[5-(1-Benzofuran-5-yl)thiophen-2-yl]-6-{[(3R)-1-(cyclopropylcarbonyl)pyrrolidin-3-yl]methyl}-4,6-diazaspiro[2.4]hept-4-en-7-one] | 70 | 3.31 | –
O=C(C1CC1)N1CC[C@@H](CN2C(=O)C3(CC3)N=C2c2ccc(-c3ccc4[nH]ncc4c3)s2)C1 [compound 424, 6-{[(3R)-1-(Cyclopropylcarbonyl)pyrrolidin-3-yl]methyl}-5-[5-(1H-indazol-5-yl)thiophen-2-yl]-4,6-diazaspiro[2.4]hept-4-en-7-one] | 68 | 3.98 | –
Cn1ncc2cc(-c3ccc(C4=NC5(CC5)C(=O)N4C[C@@H]4CCN(C(=O)C5CC5)C4)s3)ccc21 [compound 430, 6-{[(3R)-1-(Cyclopropylcarbonyl)pyrrolidin-3-yl]methyl}-5-[5-(1-methyl-1H-indazol-5-yl)thiophen-2-yl]-4,6-diazaspiro[2.4]hept-4-en-7-one] | 52 | – | 5.05
Cc1cc2cc(-c3ccc(C4=NC5(CC5)C(=O)N4CC4CN(C(=O)C5CC5)C4)cc3F)ccc2s1 [compound 433, 6-{[1-(Cyclopropylcarbonyl)azetidin-3-yl]methyl}-5-[3-fluoro-4-(2-methyl-1-benzothiophen-5-yl)phenyl]-4,6-diazaspiro[2.4]hept-4-en-7-one] | 72 | 1.82 | –
Cc1sc2ccc(-c3ccc(C4=NC5(CC5)C(=O)N4CC4CN(C(=O)C5CC5)C4)cc3F)cc2c1C [compound 434, 6-{[1-(Cyclopropylcarbonyl)azetidin-3-yl]methyl}-5-[4-(2,3-dimethyl-1-benzothiophen-5-yl)-3-fluorophenyl]-4,6-diazaspiro[2.4]hept-4-en-7-one] | 73 | 2.04 | –
Cc1cc(C2=NC3(CC3)C(=O)N2CC2CN(C(=O)C3CC3)C2)ccc1-c1ccc2c(cnn2C)c1 [compound 436, 6-{[1-(Cyclopropylcarbonyl)azetidin-3-yl]methyl}-5-[3-methyl-4-(1-methyl-1H-indazol-5-yl)phenyl]-4,6-diazaspiro[2.4]hept-4-en-7-one] | 43 | ~10 | –
O=C(C1CC1)N1CC[C@@H](CN2C(=O)C3(CC3)N=C2c2ncc(-c3ccc4occc4c3)cn2)C1 [compound 437, 5-[5-(1-Benzofuran-5-yl)pyrimidin-2-yl]-6-{[(3R)-1-(cyclopropylcarbonyl)pyrrolidin-3-yl]methyl}-4,6-diazaspiro[2.4]hept-4-en-7-one] | 72 | 2.75 | –
Cn1ncc2cc(-c3cnc(C4=NC5(CC5)C(=O)N4C[C@@H]4CCN(C(=O)C5CC5)C4)nc3)ccc21 [compound 438, 6-{[(3R)-1-(Cyclopropylcarbonyl)pyrrolidin-3-yl]methyl}-5-[5-(1-methyl-1H-indazol-5-yl)pyrimidin-2-yl]-4,6-diazaspiro[2.4]hept-4-en-7-one] | 65 | 3.31 | –
O=C(C1CC1)N1CC[C@@H](CN2C(=O)C3(CC3)N=C2c2cnc(-c3ccc4occc4c3)cn2)C1 [compound 439, 5-[5-(1-Benzofuran-5-yl)pyrazin-2-yl]-6-{[(3R)-1-(cyclopropylcarbonyl)pyrrolidin-3-yl]methyl}-4,6-diazaspiro[2.4]hept-4-en-7-one] | 48 | 9.55 | –
Cn1ncc2cc(-c3ccc(C4=NC5(CC5)C(=O)N4CC4CN(C(=O)C5CC5)C4)cc3F)ccc21 [compound 441, 6-{[1-(Cyclopropylcarbonyl)azetidin-3-yl]methyl}-5-[3-fluoro-4-(1-methyl-1H-indazol-5-yl)phenyl]-4,6-diazaspiro[2.4]hept-4-en-7-one] | 63 | 3.98 | –
Cc1cc2cc(-c3ccc(C4=NC5(CC5)C(=O)N4CC4CN(C(=O)C5CC5)C4)cc3C)ccc2s1 [compound 446, 6-{[1-(Cyclopropylcarbonyl)azetidin-3-yl]methyl}-5-[3-methyl-4-(2-methyl-1-benzothiophen-5-yl)phenyl]-4,6-diazaspiro[2.4]hept-4-en-7-one] | 60 | 5.01 | –
Cc1cc(C2=NC3(CC3)C(=O)N2CC2CN(C(=O)C3CC3)C2)ccc1-c1ccc2sc(C)c(C)c2c1 [compound 447, 6-{[1-(Cyclopropylcarbonyl)azetidin-3-yl]methyl}-5-[4-(2,3-dimethyl-1-benzothiophen-5-yl)-3-methylphenyl]-4,6-diazaspiro[2.4]hept-4-en-7-one] | 79 | 1.2 | –
Cc1cc(C2=NC3(CC3)C(=O)N2CC2CN(C(=O)C3CC3)C2)ccc1-c1ccc2[nH]ncc2c1 [compound 448, 6-{[1-(Cyclopropylcarbonyl)azetidin-3-yl]methyl}-5-[4-(1H-indazol-5-yl)-3-methylphenyl]-4,6-diazaspiro[2.4]hept-4-en-7-one] | 50 | 8.51 | –
O=C(C1CC1)N1CC(CN2C(=O)C3(CC3)N=C2c2ccc(-c3ccc4[nH]ncc4c3)c(F)c2)C1 [compound 451, 6-{[1-(Cyclopropylcarbonyl)azetidin-3-yl]methyl}-5-[3-fluoro-4-(1H-indazol-5-yl)phenyl]-4,6-diazaspiro[2.4]hept-4-en-7-one] | 82 | 1.26 | –
